Results reported in PubChem BioAssay (NCI).
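Grown in 96-well plates, cells were treated for 48 hours with each compound at five concentrations. Insufficient inhibition: endpoint recorded as highest concentration tested. TGI: concentration producing complete growth inhibition.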

Columns and labels:
Test in all cases: NCI tumour cell line growth inhibition, 48 h
[1] = test system: SF-295 CNS
[2] = test system: XF 498 CNS
[3] = test system: RXF 393 renal
[4] = test system: LOX IMVI melanoma
[5] = test system: CAKI-1 renal
[6] = test system: COLO 205 colon
[7] = test system: SNB-78 CNS
[8] = test system: HCT-116 colon
[9] = test system: A498 renal
[10] = test system: MALME-3M melanoma
[11] = test system: MOLT-4 leukemia
[12] = test system: OVCAR-3 ovarian
[13] = test system: UO-31 renal
[14] = test system: SW-620 colon
[15] = test system: DLD-1 colon
[16] = test system: HOP-92 NSCLC
[17] = test system: SK-OV-3 ovarian
[18] = test system: NCI-H460 lung
[19] = test system: SN12C renal
[20] = test system: A549 NSCLC
[21] = test system: HT29 colon
[22] = test system: LXFL 529 NSCLC
[23] = test system: SK-MEL-2 melanoma
[24] = test system: IGROV1 ovarian
[25] = test system: CCRF-CEM leukemia
[26] = test system: U251 CNS
[27] = test system: NCI-H226 lung
[28] = test system: OVCAR-8 ovarian
[29] = test system: SK-MEL-28 melanoma
[30] = test system: SF-268 CNS
[31] = test system: UACC-62 melanoma
[32] = test system: NCI-H23 lung
[33] = test system: ACHN renal
[34] = test system: RPMI-8226 leukemia
[35] = test system: DMS 114 small cell lung
[36] = test system: OVCAR-5 ovarian
[37] = test system: HOP-18 NSCLC
[38] = test system: 786-0 renal
[39] = test system: KM12 colon
[40] = test system: SF-539 CNS
[41] = test system: HOP-62 NSCLC
[42] = test system: UACC-257 melanoma
[43] = test system: HCC-2998 colon
[44] = test system: DMS 273 small cell lung
[45] = test system: SK-MEL-5 melanoma
[46] = test system: SNB-75 CNS
[47] = test system: TK-10 renal
[48] = test system: KM20L2 colon
[49] = test system: RXF-631 renal
[50] = test system: HCT-15 colon
[51] = test system: M19-MEL melanoma
[52] = test system: K-562 leukemia
[53] = test system: M14 melanoma
[54] = test system: NCI-H522 lung
[55] = test system: EKVX NSCLC
[56] = test system: OVCAR-4 ovarian
[57] = test system: SNB-19 CNS
[58] = test system: HL-60(TB) leukemia
[59] = test system: PC-3 prostate
[60] = test system: P388 leukemia
[61] = test system: MDA-MB-231 breast
[62] = test system: HS 578T breast
[63] = test system: MDA-N
[64] = test system: BT-549 breast
[65] = test system: MDA-MB-435
[66] = test system: MCF7 breast
[67] = test system: NCI/ADR-RES ovarian
[68] = test system: T-47D breast
[69] = test system: P388/ADR leukemia
[70] = test system: DU-145 prostate
[71] = test system: SN12K1 renal
[72] = test system: SR leukemia

COC1=CC(C2c3cc4c(cc3[C@@H](Nc3ccc([N+](=O)[O-])cc3)C3COC(=O)[C@H]23)OCO4)=CC(=O)C1=O (some centres not stated)
TGI [1]: 7.47 µM | TGI [2]: 50.7 µM | TGI [3]: 86.8 µM | TGI [4]: 13.2 µM | TGI [5]: 25.6 µM | TGI [6]: 73.2 µM | TGI [7]: > 100 µM | TGI [8]: 27.5 µM | TGI [9]: 6.23 µM | TGI [10]: 26.4 µM | TGI [11]: 10.5 µM | TGI [12]: 54.9 µM | TGI [13]: 20.7 µM | TGI [14]: > 66.4 µM | TGI [15]: > 96.7 µM | TGI [16]: > 53 µM | TGI [17]: 6.98 µM | TGI [18]: 7.08 µM | TGI [19]: 7.59 µM | TGI [20]: 10.6 µM | TGI [21]: 35.8 µM | TGI [22]: > 78.7 µM | TGI [23]: 92 µM | TGI [24]: > 65.2 µM | TGI [25]: > 25.3 µM | TGI [26]: 4.75 µM | TGI [27]: 6.65 µM | TGI [28]: 40.4 µM | TGI [29]: > 94.8 µM | TGI [30]: 12.6 µM | TGI [31]: 8.96 µM | TGI [32]: 4.68 µM | TGI [33]: 4.43 µM | TGI [34]: > 100 µM | TGI [35]: 8.28 µM | TGI [36]: 41 µM | TGI [37]: > 100 µM | TGI [38]: 4.86 µM | TGI [39]: 26.4 µM | TGI [40]: 6.05 µM | TGI [41]: 2.47 µM | TGI [42]: > 100 µM | TGI [43]: 14.5 µM | TGI [44]: 5.12 µM | TGI [45]: 19.9 µM | TGI [46]: 16 µM | TGI [47]: 43 µM | TGI [48]: > 62.6 µM | TGI [49]: 14.1 µM | TGI [50]: 34.1 µM | TGI [51]: 45.2 µM | TGI [52]: > 96.6 µM | TGI [53]: > 37.7 µM | TGI [54]: 13.4 µM | TGI [55]: > 95.2 µM | TGI [56]: > 100 µM | TGI [57]: > 86.5 µM

COc1ccc(/C(Cl)=C(\C=O)c2ccc(Br)cc2)cc1OC
TGI [1]: 67.9 µM | TGI [2]: 39.8 µM | TGI [3]: > 100 µM | TGI [4]: > 100 µM | TGI [5]: > 100 µM | TGI [6]: > 100 µM | TGI [7]: > 100 µM | TGI [9]: > 100 µM | TGI [10]: > 100 µM | TGI [11]: > 100 µM | TGI [12]: > 100 µM | TGI [13]: > 100 µM | TGI [14]: > 100 µM | TGI [15]: > 100 µM | TGI [16]: 72.6 µM | TGI [17]: > 100 µM | TGI [18]: > 100 µM | TGI [19]: > 100 µM | TGI [20]: > 100 µM | TGI [21]: > 100 µM | TGI [22]: > 100 µM | TGI [23]: 74.4 µM | TGI [24]: > 100 µM | TGI [26]: > 100 µM | TGI [27]: > 100 µM | TGI [28]: > 100 µM | TGI [29]: > 100 µM | TGI [30]: > 100 µM | TGI [31]: > 100 µM | TGI [32]: > 100 µM | TGI [33]: > 100 µM | TGI [34]: > 100 µM | TGI [36]: > 100 µM | TGI [37]: > 100 µM | TGI [38]: > 100 µM | TGI [39]: > 100 µM | TGI [40]: 67.1 µM | TGI [41]: > 100 µM | TGI [42]: > 100 µM | TGI [43]: > 100 µM | TGI [44]: > 100 µM | TGI [45]: > 100 µM | TGI [46]: 30 µM | TGI [47]: > 100 µM | TGI [48]: > 100 µM | TGI [49]: > 100 µM | TGI [50]: > 100 µM | TGI [58]: > 100 µM | TGI [51]: > 100 µM | TGI [52]: > 100 µM | TGI [53]: > 100 µM | TGI [54]: > 100 µM | TGI [55]: > 100 µM | TGI [56]: > 100 µM | TGI [57]: > 100 µM

CC(=O)NCCCCCCNC(C)=O
TGI [1]: > 10000 µM | TGI [59]: > 10000 µM | TGI [2]: 8380 µM | TGI [3]: > 10000 µM | TGI [4]: > 10000 µM | TGI [5]: > 10000 µM | TGI [6]: > 10000 µM | TGI [7]: > 10000 µM | TGI [8]: > 10000 µM | TGI [9]: > 9690 µM | TGI [10]: 7700 µM | TGI [11]: > 10000 µM | TGI [12]: 9840 µM | TGI [13]: > 10000 µM | TGI [60]: > 10000 µM | TGI [14]: > 10000 µM | TGI [15]: > 10000 µM | TGI [16]: > 6730 µM | TGI [17]: > 10000 µM | TGI [18]: > 7500 µM | TGI [19]: > 10000 µM | TGI [61]: > 5620 µM | TGI [20]: > 9660 µM | TGI [62]: > 10000 µM | TGI [63]: > 10000 µM | TGI [21]: > 10000 µM | TGI [23]: > 10000 µM | TGI [24]: > 10000 µM | TGI [25]: > 10000 µM | TGI [64]: > 10000 µM | TGI [26]: > 10000 µM | TGI [65]: > 10000 µM | TGI [27]: > 10000 µM | TGI [28]: > 10000 µM | TGI [29]: > 10000 µM | TGI [30]: > 10000 µM | TGI [31]: 9870 µM | TGI [32]: > 10000 µM | TGI [66]: > 9380 µM | TGI [33]: > 10000 µM | TGI [34]: > 10000 µM | TGI [67]: > 10000 µM | TGI [68]: > 10000 µM | TGI [35]: > 10000 µM | TGI [36]: > 10000 µM | TGI [37]: > 10000 µM | TGI [38]: > 10000 µM | TGI [39]: > 10000 µM | TGI [69]: > 10000 µM | TGI [40]: > 10000 µM | TGI [41]: > 10000 µM | TGI [42]: > 10000 µM | TGI [43]: > 8610 µM | TGI [44]: 7250 µM | TGI [70]: > 10000 µM | TGI [71]: > 10000 µM | TGI [45]: > 10000 µM | TGI [46]: 8830 µM | TGI [47]: > 10000 µM | TGI [48]: > 10000 µM | TGI [50]: > 10000 µM | TGI [58]: 9000 µM | TGI [51]: > 10000 µM | TGI [52]: > 10000 µM | TGI [53]: > 10000 µM | TGI [54]: 9120 µM | TGI [72]: > 10000 µM | TGI [55]: > 10000 µM | TGI [56]: > 9590 µM | TGI [57]: > 10000 µM
